Source: patent US11572402B2, “Method for promoting diversification of antibody variable region” (Chiome Bioscience Inc., priority 2017, dated 2023)

Tests used:
Assay type in all cases: cell-based, chicken
hVEGF-A-#44 cell line = test: Affinity Maturation and FCM, cells in Affinity Maturation Gate; settings: A66 10 μM, PI3Kα Inhibitor 2 500 nM, Day 7, versus conditions without drug
Description: (§1) Frozen stocks of the hVEGF-A #33 cell line and the hVEGF-A #44 cell line (3.0×10^6 cells) were each awaken with a CS(−) medium, using a 25 cm^2 Flask (Corning, 430639), and were then cultured in a CO2 incubator (SANYO CO2 Incubator MCO-20AIC, 39.5° C., 5% CO2). On the following day, the cells were seeded on a 6-well dish (Nunc, 140675) to a cell density of 1.0×10^4 cells/mL (wherein the cell concentration and the survival rate were measured using CASY cell counter (Nepa Gene)). The cells were cultured in a CS(+) medium, in the presence or absence of a PI3Kα inhibitor (A66: 10 μM, PI3Kα Inhibitor 2: 500 nM). Moreover, after the cells had been cultured for 2 days, individual samples were subcultured under the same conditions to result in a cell density of 1.0×10^4 cells/mL. […] A plot, in which the vertical axis indicated AF647 (AF647-labeled hVEGF-A) and the longitudinal axis indicated PE (Goat Anti-Human IgG-PE), was developed, and the percentage of PE+(hIgG+)/[…] cells was then calculated. […] The percentage of clones with improved antigen-binding ability was calculated by counting the number of cells existing in this Affinity Maturation Gate and then dividing the obtained value by the total number of the analyzed cells. […]

hVEGF-A-#33 cell line = test: as above; settings: A66 10 μM, PI3Kα Inhibitor 2 500 nM, Day 7, versus conditions without drug
Description: as §1

BMAA4-2 cell line = test: Sequence change analysis using BMAA4-2 cell line according to flow cytometry (cIgM+_Sema3A− population); settings: BMAA4-2 cells, FCM at 1 week of culture, versus negative control CS(−)
Description: A frozen stock of the BMAA4-2 cell line (3.0×10^6 cells) was awaken with 10 mL of CS(−) medium, using a 25 cm^2 Flask (Corning, 430639), and the cells were then cultured in a CO2 incubator (SANYO CO2 Incubator MCO-20AIC, 39.5° C., 5% CO2). On the following day, 500 μL each of a CS(−) medium, to which each drug had been added, was added into each well of a 48-well dish (Nunc, 150687), and the cells were then seeded thereon to a cell density of 6.0×10^4 cells/mL (wherein the cell concentration and the survival rate were measured using CASY cell counter (Nepa Gene)). After individual samples had been cultured for 2 days, the samples were subcultured under the same conditions to result in a cell density of 1.0×10^4 cells/mL. […] Thereafter, a plot, in which the vertical axis indicated APC (AF647-labeled Sema3A) and the longitudinal axis indicated PE (Mouse Anti-Chicken IgM-PE), was developed, and the percentage of PE+ (cIgM+)_APC− (Sema3A−) cells was then calculated.
Using the BMAA4-2 cell line, a system for screening for a diversification-promoting compound was constructed (FIG. 1). […] Thus, the percentage of cIgM+_Sema3A− populations under individual culture conditions is measured and compared according to FCM, so that the effect of promoting changes in the amino acid sequences (i.e., the effect of promoting the diversification of the amino acid sequences) can be evaluated.

Question: For `Cc1nc(NC(=O)N2CCC[C@H]2C(N)=O)sc1-c1csc(C(C)(C)C)n1` [A66], which “percentage of the cells with improved antigen-binding ability (Affinity Maturation Gate, 5 or more times increased in MFI)” value (hVEGF-A-#44 cell line) is on record?
Answer: increased

Question: What about the “percentage of the cells with improved antigen-binding ability (Affinity Maturation Gate, 5 or more times increased in MFI)” value (hVEGF-A-#33 cell line) of the same molecule?
Answer: increased

Question: And the “percentage of cIgM+_Sema3A− populations (sequence change-promoting action)” value (BMAA4-2 cell line)?
Answer: highest sequence change-promoting action
